Target: PehR (Ralstonia pseudosolanacearum, UniProt Q8XVM3)
Test: biochemical

Sequence of PehR (Q8XVM3 1-570): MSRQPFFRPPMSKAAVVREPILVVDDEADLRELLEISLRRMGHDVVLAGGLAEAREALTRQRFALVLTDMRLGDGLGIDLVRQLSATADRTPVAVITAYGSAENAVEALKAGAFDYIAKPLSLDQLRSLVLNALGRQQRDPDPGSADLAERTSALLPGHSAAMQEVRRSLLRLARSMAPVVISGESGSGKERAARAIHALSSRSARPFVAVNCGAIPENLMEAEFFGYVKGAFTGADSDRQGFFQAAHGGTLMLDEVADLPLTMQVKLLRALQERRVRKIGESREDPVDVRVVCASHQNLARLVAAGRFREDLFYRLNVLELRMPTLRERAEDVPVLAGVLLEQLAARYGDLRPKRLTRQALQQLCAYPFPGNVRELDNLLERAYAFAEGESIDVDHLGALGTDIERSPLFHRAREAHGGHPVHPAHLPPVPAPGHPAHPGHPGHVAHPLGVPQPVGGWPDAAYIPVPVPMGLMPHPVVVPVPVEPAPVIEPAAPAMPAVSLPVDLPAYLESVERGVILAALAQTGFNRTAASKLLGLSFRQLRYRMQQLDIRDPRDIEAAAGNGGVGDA

## Nc1ncnc2c1ncn2[C@@H]1O[C@H](COP(=O)(O)OP(=O)(O)OP(=O)(O)O)[C@H]2OC3(O[C@H]21)C([N+](=O)[O-])=CC(=[N+]([O-])O)C=C3[N+](=O)[O-] (stereo partly shown) [TNP-ATP]
  Kd: 106 µM

Source: paper PMC10535256 (ACS Omega, 2023)
